Measurements: the supplement of paper PMC4862054

Assays:
Settings in all cases: incubation time: 72 h
[1] = system: MDA-MB-453; assay: normalised viability (% of control), CellTiter-Blue; higher = more viable cells (100 = DMSO, 0 = benzethonium chloride kill control)
Procedure, shortened: (§1)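 The reported quantity is normalised viability at a single listed concentration of the series. Compound in 5 µl medium was pre-dispensed into 384-well plates and 20 µl of breast cancer cell suspension was added for 72 h. A 2 h, 37 °C CellTiter-Blue step (2.5 µl) preceded fluorescence reading at 560/590 nm, and plates were normalised to vehicle (100) and a positive kill control (0).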

[2] = system: MDA-MB-468; assay: as above
Procedure, shortened: as §1

[3] = system: CAL-120; assay: as above
Procedure, shortened: as §1

[4] = system: BT-549; assay: as above
Procedure, shortened: as §1

[5] = system: HCC1599; assay: as above
Procedure, shortened: as §1

[6] = system: MDA-MB-231; assay: as above
Procedure, shortened: as §1

[7] = system: CAL-51; assay: as above
Procedure, shortened: as §1

[8] = system: HDQ-P1; assay: as above
Procedure, shortened: as §1

[9] = system: CAL-85-1; assay: as above
Procedure, shortened: as §1

[10] = system: HCC1143; assay: as above
Procedure, shortened: as §1

[11] = system: SK-BR-3; assay: as above
Procedure, shortened: as §1

[12] = system: DU-4475; assay: as above
Procedure, shortened: as §1

[13] = system: MDA-MB-436; assay: as above
Procedure, shortened: as §1

[14] = system: HCC1937; assay: as above
Procedure, shortened: as §1

[15] = system: Hs578T; assay: as above
Procedure, shortened: as §1

[16] = system: BT-474; assay: as above
Procedure, shortened: as §1

[17] = system: MFM-223; assay: as above
Procedure, shortened: as §1

[18] = system: CAL-148; assay: as above
Procedure, shortened: as §1

[19] = system: MDA-MB-453; assay: normalised response (% of control), CellTiter-Glo; higher = more viable cells (100 = DMSO, 0 = benzethonium chloride kill control)
Procedure, shortened: (§2)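 Every value is a normalised signal taken at one concentration of a dilution series. Compound was placed in 384-well plates at 5 concentrations in 10-fold steps over a compound-specific 10,000-fold range, and 20 µl of breast cancer cell suspension was seeded onto it. After 72 h, CellTox Green fluorescence (485/520 nm) was measured first and CellTiter-Glo luminescence second, following 10 min at room temperature. Each plate was scaled to 0.1 % DMSO (100) and a positive kill control (0).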

[20] = system: MDA-MB-468; assay: as above
Procedure, shortened: as §2

[21] = system: CAL-120; assay: as above
Procedure, shortened: as §2

[22] = system: MCF-10A; assay: as above
Procedure, shortened: as §2

[23] = system: BT-549; assay: as above
Procedure, shortened: as §2

[24] = system: HCC1599; assay: as above
Procedure, shortened: as §2

[25] = system: MDA-MB-231; assay: as above
Procedure, shortened: as §2

[26] = system: CAL-51; assay: as above
Procedure, shortened: as §2

[27] = system: HDQ-P1; assay: as above
Procedure, shortened: as §2

[28] = system: CAL-85-1; assay: as above
Procedure, shortened: as §2

[29] = system: HCC1143; assay: as above
Procedure, shortened: as §2

[30] = system: SK-BR-3; assay: as above
Procedure, shortened: as §2

[31] = system: DU-4475; assay: as above
Procedure, shortened: as §2

[32] = system: MDA-MB-436; assay: as above
Procedure, shortened: as §2

[33] = system: HCC1937; assay: as above
Procedure, shortened: as §2

[34] = system: Hs578T; assay: as above
Procedure, shortened: as §2

[35] = system: BT-474; assay: as above
Procedure, shortened: as §2

[36] = system: MFM-223; assay: as above
Procedure, shortened: as §2

[37] = system: CAL-148; assay: as above
Procedure, shortened: as §2

## CNCc1ccc(-c2[nH]c3cc(F)cc4c3c2CCNC4=O)cc1 [Rucaparib] (1 nM)
[1]
  normalised viability: 95.2%
[2]
  normalised viability: 110%
[3]
  normalised viability: 79.5%
[4]
  normalised viability: 95.3%
[5]
  normalised viability: 122%
[6]
  normalised viability: 105%
[7]
  normalised viability: 113%
[8]
  normalised viability: 68.1%
[9]
  normalised viability: 88.6%
[10]
  normalised viability: 103%
[11]
  normalised viability: 100%
[12]
  normalised viability: 111%
[13]
  normalised viability: 104%
[14]
  normalised viability: 108%
[15]
  normalised viability: 97.4%
[16]
  normalised viability: 109%
[17]
  normalised viability: 91.6%
[18]
  normalised viability: 96.4%
[19]
  normalised response: 98.2%
[20]
  normalised response: 96.8%
[21]
  normalised response: 96.3%
[22]
  normalised response: 84.6%
[23]
  normalised response: 96.9%
[24]
  normalised response: 98.4%
[25]
  normalised response: 99.1%
[26]
  normalised response: 117%
[27]
  normalised response: 97.2%
[28]
  normalised response: 100%
[29]
  normalised response: 94.1%
[30]
  normalised response: 82.4%
[31]
  normalised response: 99.4%
[32]
  normalised response: 98.5%
[33]
  normalised response: 97.8%
[34]
  normalised response: 102%
[35]
  normalised response: 92.6%
[36]
  normalised response: 95.9%
[37]
  normalised response: 98.2%

## Clc1ccc(Nc2nnc(Cc3ccncc3)c3ccccc23)cc1 [Vatalanib] (1 nM)
[1]
  normalised viability: 99.8%
[2]
  normalised viability: 98.8%
[3]
  normalised viability: 84.3%
[4]
  normalised viability: 100%
[5]
  normalised viability: 95.2%
[6]
  normalised viability: 87.7%
[7]
  normalised viability: 99.4%
[8]
  normalised viability: 91%
[9]
  normalised viability: 94.3%
[10]
  normalised viability: 89.5%
[11]
  normalised viability: 93.2%
[12]
  normalised viability: 97.9%
[13]
  normalised viability: 125%
[14]
  normalised viability: 78.3%
[15]
  normalised viability: 99.8%
[16]
  normalised viability: 86.8%
[17]
  normalised viability: 106%
[18]
  normalised viability: 90.5%
[19]
  normalised response: 103%
[20]
  normalised response: 114%
[21]
  normalised response: 97.3%
[22]
  normalised response: 110%
[23]
  normalised response: 93.2%
[24]
  normalised response: 105%
[25]
  normalised response: 99.1%
[26]
  normalised response: 99.8%
[27]
  normalised response: 103%
[28]
  normalised response: 102%
[29]
  normalised response: 97.1%
[30]
  normalised response: 111%
[31]
  normalised response: 104%
[32]
  normalised response: 98.9%
[33]
  normalised response: 101%
[34]
  normalised response: 101%
[35]
  normalised response: 101%
[36]
  normalised response: 108%
[37]
  normalised response: 102%

## O=P1(NCCCl)OCCCN1CCCl (stereo not drawn) [Ifosfamide] (1 nM)
[1]
  normalised viability: 107%
[2]
  normalised viability: 124%
[3]
  normalised viability: 89.7%
[4]
  normalised viability: 122%
[5]
  normalised viability: 109%
[6]
  normalised viability: 122%
[7]
  normalised viability: 110%
[8]
  normalised viability: 119%
[9]
  normalised viability: 84.3%
[10]
  normalised viability: 88.9%
[11]
  normalised viability: 98.3%
[12]
  normalised viability: 116%
[13]
  normalised viability: 95.2%
[14]
  normalised viability: 87.6%
[15]
  normalised viability: 55.3%
[16]
  normalised viability: 86.7%
[17]
  normalised viability: 93.8%
[18]
  normalised viability: 118%
[19]
  normalised response: 90.3%
[20]
  normalised response: 95.3%
[21]
  normalised response: 92.2%
[22]
  normalised response: 92.1%
[23]
  normalised response: 102%
[24]
  normalised response: 94.2%
[25]
  normalised response: 97%
[26]
  normalised response: 78.5%
[27]
  normalised response: 98.1%
[28]
  normalised response: 93.9%
[29]
  normalised response: 89.7%
[30]
  normalised response: 93.3%
[31]
  normalised response: 93.7%
[32]
  normalised response: 97.8%
[33]
  normalised response: 94.8%
[34]
  normalised response: 98.8%
[35]
  normalised response: 94.2%
[36]
  normalised response: 87.2%
[37]
  normalised response: 99.4%

## COc1cc([C@@H]2c3cc4c(cc3[C@@H](O[C@@H]3O[C@@H]5CO[C@@H](C)O[C@H]5[C@H](O)[C@H]3O)[C@H]3COC(=O)[C@H]23)OCO4)cc(OC)c1O [Etoposide] (1 nM)
[1]
  normalised viability: 103%
[2]
  normalised viability: 98%
[3]
  normalised viability: 98.1%
[4]
  normalised viability: 96.9%
[5]
  normalised viability: 121%
[6]
  normalised viability: 90.8%
[7]
  normalised viability: 87.8%
[8]
  normalised viability: 96.3%
[9]
  normalised viability: 99%
[10]
  normalised viability: 107%
[11]
  normalised viability: 97.5%
[12]
  normalised viability: 112%
[13]
  normalised viability: 105%
[14]
  normalised viability: 86%
[15]
  normalised viability: 97.3%
[16]
  normalised viability: 91.5%
[17]
  normalised viability: 100%
[18]
  normalised viability: 110%
[19]
  normalised response: 106%
[20]
  normalised response: 101%
[21]
  normalised response: 101%
[22]
  normalised response: 110%
[23]
  normalised response: 114%
[24]
  normalised response: 107%
[25]
  normalised response: 113%
[26]
  normalised response: 134%
[27]
  normalised response: 105%
[28]
  normalised response: 98.6%
[29]
  normalised response: 110%
[30]
  normalised response: 109%
[31]
  normalised response: 106%
[32]
  normalised response: 128%
[33]
  normalised response: 98.8%
[34]
  normalised response: 105%
[35]
  normalised response: 103%
[36]
  normalised response: 107%
[37]
  normalised response: 104%
